# Earlier results as cited in patent US20090048317A1, “Formulations of candesartan” (priority 2007, published 2009).
# Conditions: in water and in methanol
smiles,measurement,value
"CCOc1nc2cccc(C(=O)OC(C)OC(=O)OC3CCCCC3)c2n1Cc1ccc(-c2ccccc2-c2nnn[nH]2)cc1 (racemic) [Candesartan cilexetil, (±)-1-[[(cyclohexyloxy)carbonyl]oxy]ethyl-2-ethoxy-1-[[′-(1H-tetrazol-5-yl)[1,1-biphenyl]-4-yl]methyl]-1H-benzimidazole-7-carboxylate]",solubility,sparingly soluble
